Here are results for 14 molecules from PubChem BioAssay (NCI).

Values joined by “and” are separate entries in the source; they are usually repeats but may differ in a detail not shown here. Identical values can stand only once.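 Following 48 hours of exposure in 96-well plates, responses at five concentrations were used to interpolate endpoints linearly. TGI: total growth inhibition.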

Test systems include COLO 205 colon; HOP-18 NSCLC; KM12 colon; LXFL 529 NSCLC; NCI-H460 lung; OVCAR-3 ovarian; OVCAR-4 ovarian; SF-539 CNS; SK-MEL-28 melanoma; SK-MEL-5 melanoma; HL-60(TB) leukemia.
What all share (test): NCI anticancer screen, dose series, 48 h

With `CN1CCCCC(C(O)(c2ccccc2)c2ccccc2)C1=O` (stereo not given), the TGI with COLO 205 colon, with HOP-18 NSCLC, in the assay with KM12 colon, in the assay with LXFL 529 NSCLC, with NCI-H460 lung and with OVCAR-3 ovarian was over 100 µM throughout. For the same molecule, the TGI in the assay on OVCAR-4 ovarian, in the assay on SF-539 CNS, in the assay with SK-MEL-28 melanoma and in the assay on SK-MEL-5 melanoma was over 100 µM each time.
`Clc1ncnc2c1ncn2CCCCCCCCCCCCn1cnc2c(Cl)ncnc21`: the TGI in the assay with COLO 205 colon amounted to 29.1 µM; in the assay on HL-60(TB) leukemia, 19.1 µM; with HOP-18 NSCLC, 58.3 µM; in the assay with KM12 colon, 28.9 µM; in the assay with LXFL 529 NSCLC it was 17.5 µM; with NCI-H460 lung, 31.8 µM. The TGI was determined as 23.3 µM in the assay on OVCAR-3 ovarian; 23.3 µM in the assay on OVCAR-4 ovarian; 27.8 µM in the assay on SF-539 CNS; 6.82 µM with SK-MEL-28 melanoma; 17.5 µM with SK-MEL-5 melanoma.
On to `COc1ccc(C2=CN3CCC[C@H]3C=C2c2cc(O)c(OC)c(OC)c2)cc1OC`, for which the TGI in the assay with COLO 205 colon was 0.0256 µM; with HL-60(TB) leukemia, 0.161 µM and 0.0175 µM; in the assay with HOP-18 NSCLC, 0.0504 µM; in the assay on KM12 colon, 0.0394 µM; with LXFL 529 NSCLC it was 0.078 µM and 0.376 µM; in the assay on NCI-H460 lung it was 0.0267 µM and 0.0127 µM. Also, the TGI in the assay with OVCAR-3 ovarian was 0.0669 µM and 0.0274 µM; with OVCAR-4 ovarian it was 0.0374 µM; in the assay with SF-539 CNS it was 0.0594 µM and 0.0927 µM; with SK-MEL-28 melanoma, 0.101 µM and 0.0107 µM; with SK-MEL-5 melanoma it was 0.015 µM.
Consider `COC(=O)c1cccc(C(=O)OC)c1`, for which the TGI in the assay with COLO 205 colon, in the assay on HL-60(TB) leukemia, with HOP-18 NSCLC, in the assay on KM12 colon, with LXFL 529 NSCLC and in the assay with NCI-H460 lung was over 100 µM throughout. Further, the TGI in the assay on OVCAR-4 ovarian and in the assay with SK-MEL-28 melanoma was over 100 µM throughout.
With `COc1nc2[nH]ccc2c(=O)n1C`, the TGI in the assay on COLO 205 colon, in the assay with HL-60(TB) leukemia, in the assay on HOP-18 NSCLC, with KM12 colon, in the assay with LXFL 529 NSCLC and in the assay on NCI-H460 lung was over 100 µM in each case. Moreover, the TGI with OVCAR-4 ovarian is 41.5 µM; in the assay with SF-539 CNS, over 100 µM; in the assay with SK-MEL-28 melanoma, over 100 µM; with SK-MEL-5 melanoma, over 100 µM.
Turning to `COC(=O)c1ccccc1CC(Cc1ccccc1)C(=O)OC` (stereo not given), the TGI with COLO 205 colon is over 100 µM; in the assay on HL-60(TB) leukemia, 55.9 µM; in the assay on KM12 colon, over 100 µM; with NCI-H460 lung, over 100 µM; in the assay on OVCAR-3 ovarian, over 100 µM; in the assay with OVCAR-4 ovarian it was over 100 µM. In addition, the TGI in the assay with SF-539 CNS was over 100 µM; in the assay with SK-MEL-28 melanoma, over 100 µM; in the assay with SK-MEL-5 melanoma it was 54.8 µM.
`CC(=O)Nc1ccc(-c2nnc(SCC(=O)Nc3ccccc3C)o2)cc1`: the TGI with COLO 205 colon, in the assay on HL-60(TB) leukemia, in the assay on HOP-18 NSCLC, in the assay with KM12 colon, in the assay on LXFL 529 NSCLC and in the assay with NCI-H460 lung was over 100 µM in each case. The TGI in the assay with OVCAR-3 ovarian, in the assay on OVCAR-4 ovarian, in the assay on SF-539 CNS, in the assay on SK-MEL-28 melanoma and in the assay with SK-MEL-5 melanoma was over 100 µM in each case.
On to `O=C(NN1C(=O)C=CC1=O)c1ccccc1Nc1ccccc1C(=O)NN1C(=O)C=CC1=O`, for which the TGI with COLO 205 colon, with HL-60(TB) leukemia, in the assay on KM12 colon, in the assay with NCI-H460 lung, with OVCAR-3 ovarian and with OVCAR-4 ovarian was over 100 µM in each case. Besides, the TGI in the assay on SF-539 CNS, in the assay with SK-MEL-28 melanoma and in the assay on SK-MEL-5 melanoma was over 100 µM throughout.
With `Cc1cccc2c1C/C(=C\c1cccc(C)c1C(=O)O)C2=O`, the TGI in the assay with COLO 205 colon, in the assay on HL-60(TB) leukemia, with KM12 colon, with NCI-H460 lung, in the assay on OVCAR-3 ovarian and in the assay on OVCAR-4 ovarian was over 100 µM each time. Also, the TGI with SF-539 CNS, with SK-MEL-28 melanoma and in the assay on SK-MEL-5 melanoma was over 100 µM each time.
Regarding `CC(=N\N=C\c1ccccn1)/C(C)=N/N=C(C)/C(C)=N/N=C(C)/C(C)=N/N=C/c1ccccn1`, the TGI in the assay with COLO 205 colon, with HL-60(TB) leukemia, in the assay on KM12 colon, with NCI-H460 lung, with OVCAR-3 ovarian and in the assay with OVCAR-4 ovarian was over 100 µM in each case. Also, the TGI in the assay on SF-539 CNS, in the assay on SK-MEL-28 melanoma and with SK-MEL-5 melanoma was over 100 µM throughout.
For the molecule `O=C(OCc1ccccc1)N1c2cc([N+](=O)[O-])ccc2C(=O)N2CCC[C@H]2C1O` (stereo not given in full), the TGI with COLO 205 colon, in the assay on HL-60(TB) leukemia, in the assay with KM12 colon, in the assay with NCI-H460 lung, with OVCAR-3 ovarian and in the assay with OVCAR-4 ovarian was over 100 µM throughout. The TGI in the assay with SF-539 CNS, in the assay with SK-MEL-28 melanoma and in the assay on SK-MEL-5 melanoma was over 100 µM in each case.
As to `CCC(C)C1(O)OC2CC3(C)OC(=CC3=O)/C(C)=C\C3OC(=O)C1(C)C32` (stereo not given), the TGI in the assay with COLO 205 colon is 21 µM; in the assay with HL-60(TB) leukemia it was 63.8 µM; in the assay with KM12 colon, 24.7 µM; in the assay on NCI-H460 lung, 57.9 µM; with OVCAR-3 ovarian it was 42.6 µM; in the assay on OVCAR-4 ovarian it was over 100 µM. For the same molecule, the TGI was over 100 µM with SF-539 CNS, over 100 µM with SK-MEL-28 melanoma and 23.1 µM with SK-MEL-5 melanoma.
Regarding `c1ccc(Nc2nnc(-c3nsc4ccccc34)o2)cc1`, the TGI in the assay on COLO 205 colon, with HL-60(TB) leukemia, in the assay on HOP-18 NSCLC, in the assay with KM12 colon, in the assay with LXFL 529 NSCLC and in the assay on NCI-H460 lung was over 100 µM each time. Moreover, the TGI in the assay on OVCAR-3 ovarian is 45.2 µM; in the assay with OVCAR-4 ovarian it was over 100 µM; with SF-539 CNS it was over 100 µM; in the assay on SK-MEL-28 melanoma it was over 100 µM; with SK-MEL-5 melanoma it was over 100 µM.
With `CC(C)C(C/C=C1\CC(CO)(COC(=O)CC(C(C)C)C(C)C)OC1=O)C(C)C` (stereo not given), the TGI is 9.75 µM with COLO 205 colon; 18.8 µM in the assay with HL-60(TB) leukemia; 28.6 µM in the assay on KM12 colon; 21.7 µM in the assay on NCI-H460 lung; 30.6 µM in the assay on OVCAR-3 ovarian; 33 µM in the assay with OVCAR-4 ovarian. The TGI in the assay on SF-539 CNS came out at 33 µM; in the assay with SK-MEL-28 melanoma, 29.3 µM; in the assay with SK-MEL-5 melanoma, 23 µM.
